Legend:
Assay type in all cases: biochemical
[1] = biological target: T1, CDK2 (Homo sapiens, UniProt P24941); assay: in vitro kinase assay, dose-response on CDK2/E (Kinase-Glo Plus luminescence described for CDK2/cyclin A2)
T1 construct: with cyclin E (IC50)

[2] = biological target: T2, c-Met (Homo sapiens, UniProt P08581); assay: Kinase-Glo Plus luminescence kinase assay, single dose […] (weak, partial inhibition)
[3] = biological target: T2, c-Met; assay: Kinase-Glo Plus luminescence kinase assay, single dose […]

T2 sequence (P08581 25-307): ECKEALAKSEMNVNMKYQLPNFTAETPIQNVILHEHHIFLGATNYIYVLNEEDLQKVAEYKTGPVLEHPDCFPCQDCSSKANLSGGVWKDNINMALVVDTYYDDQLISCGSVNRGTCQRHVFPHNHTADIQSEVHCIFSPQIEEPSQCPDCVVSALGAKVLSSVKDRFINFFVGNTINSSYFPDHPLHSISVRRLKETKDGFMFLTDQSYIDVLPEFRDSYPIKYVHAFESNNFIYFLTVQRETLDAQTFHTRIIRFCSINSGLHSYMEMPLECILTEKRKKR
T2 sequence (P08581 308-1390): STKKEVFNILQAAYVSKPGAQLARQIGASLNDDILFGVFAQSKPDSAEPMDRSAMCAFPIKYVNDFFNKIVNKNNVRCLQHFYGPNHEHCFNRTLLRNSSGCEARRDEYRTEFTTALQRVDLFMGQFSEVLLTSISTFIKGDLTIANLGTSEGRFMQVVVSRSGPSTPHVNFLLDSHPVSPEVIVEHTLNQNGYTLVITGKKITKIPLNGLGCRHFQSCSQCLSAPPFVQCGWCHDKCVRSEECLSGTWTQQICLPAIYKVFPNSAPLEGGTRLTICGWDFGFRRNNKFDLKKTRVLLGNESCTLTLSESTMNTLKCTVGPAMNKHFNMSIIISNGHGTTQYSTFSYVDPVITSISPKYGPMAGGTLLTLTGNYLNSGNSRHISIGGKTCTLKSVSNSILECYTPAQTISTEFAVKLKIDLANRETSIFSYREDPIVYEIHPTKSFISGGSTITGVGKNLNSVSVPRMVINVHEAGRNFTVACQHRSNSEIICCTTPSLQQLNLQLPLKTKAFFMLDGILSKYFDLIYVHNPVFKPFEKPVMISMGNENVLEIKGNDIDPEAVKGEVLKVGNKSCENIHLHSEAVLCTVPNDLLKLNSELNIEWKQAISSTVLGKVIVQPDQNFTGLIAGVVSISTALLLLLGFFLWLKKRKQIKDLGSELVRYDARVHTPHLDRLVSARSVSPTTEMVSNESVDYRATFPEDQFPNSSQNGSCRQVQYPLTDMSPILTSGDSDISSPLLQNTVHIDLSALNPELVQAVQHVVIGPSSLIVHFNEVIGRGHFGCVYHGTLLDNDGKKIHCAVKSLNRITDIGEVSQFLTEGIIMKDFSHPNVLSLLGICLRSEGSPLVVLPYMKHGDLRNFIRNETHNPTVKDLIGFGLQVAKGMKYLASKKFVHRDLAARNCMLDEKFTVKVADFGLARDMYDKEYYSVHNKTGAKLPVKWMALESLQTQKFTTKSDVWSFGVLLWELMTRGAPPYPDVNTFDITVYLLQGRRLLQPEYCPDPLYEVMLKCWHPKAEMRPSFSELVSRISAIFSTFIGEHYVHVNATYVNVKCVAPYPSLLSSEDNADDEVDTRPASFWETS

Row | SMILES | IC50 [1] [µM] | inhibition at 10 µM [2] [%] | inhibition at 10 µM [3] [%]
1 | COc1ccc2c(c1)/C(=N\NC(=O)Cc1c[nH]c3ccccc13)C(=O)N2 [HI 5] | 6.32 | 27 | 
2 | CN[C@@H]1C[C@H]2O[C@@](C)([C@@H]1OC)n1c3ccccc3c3c4c(c5c6ccccc6n2c5c31)C(=O)NC4 [Staurosporine] |  |  | 100

From publication PMC7830330, “A New CDK2 Inhibitor with 3-Hydrazonoindolin-2-One Scaffold Endowed with Anti-Breast Cancer Activity: Design, Synthesis, Biological Evaluation, and In Silico Insights” (Molecules, 2021)
